The record followed here is US9861680B2, “Immunomodulators” (BRISTOL-MYERS SQUIBB COMPANY, priority 2014, dated 2018).

The assay addresses T1, PD-1-Ig binding to PD-L1-TVMV-His (PD-L1-His) (Homo sapiens, UniProt Q9NZQ7).
T1 construct: hPDL1(19-239)-TVMV-His; made in house; host or cells: HEK293T
Nature of the assay: PD-1/PD-L1 Homogenous Time-Resolved Fluorescence (HTRF) binding assay. The settings on record: range class; PD-L1-His 10 nM, PD-1-Ig 20 nM. The method in brief:
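Compound was pre-incubated 15 min with PD-L1-His (10 nM final; human, cynomolgus, mouse or other species), then PD-1-Ig (20 nM final) was added for a further 15 min. Detection used Eu-cryptate anti-Ig (1 nM) and APC anti-His (20 nM), read after 30 min as the HTRF 665/620 nm ratio. Buffer was dPBS, 0.1% BSA, 0.05% Tween-20.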
(In TR-FRET formats the signal depends on donor and acceptor labels being close together.)

T1 sequence (Q9NZQ7 with tags, fused parts or gaps): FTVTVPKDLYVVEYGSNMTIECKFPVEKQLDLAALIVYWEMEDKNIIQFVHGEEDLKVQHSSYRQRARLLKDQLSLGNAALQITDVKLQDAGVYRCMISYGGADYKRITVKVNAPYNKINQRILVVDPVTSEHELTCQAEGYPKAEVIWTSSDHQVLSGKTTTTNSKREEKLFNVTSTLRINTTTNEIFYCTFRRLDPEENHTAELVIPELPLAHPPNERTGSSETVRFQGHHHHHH

With `CCCC[C@H]1C(=O)N(C)[C@@H](CCCC)C(=O)N[C@@H](CC(C)C)C(=O)N[C@H](C(=O)NCC(N)=O)CSCC(=O)N[C@@H](Cc2ccc(O)cc2)C(=O)N(CC(=O)O)CC(=O)N[C@@H](CC(N)=O)C(=O)N2CCC[C@H]2C(=O)N[C@@H](Cc2cnc[nH]2)C(=O)N[C@@H](CCC(=O)O)C(=O)N2C[C@H](O)C[C@H]2C(=O)N[C@@H](Cc2c[nH]c3ccccc23)C(=O)N[C@@H](CCN)C(=O)N[C@@H](Cc2csc3ccccc23)C(=O)N1C` [Example 5003], the IC50 (commonly the midpoint of a concentration-inhibition curve) lay within 10 to 99 nM.
